Laboratory results published in patent US5214036A, “Benzoporphyrin derivatives for photodynamic therapy” (University of British Columbia, priority 1990, dated 1993).

How the values were obtained:
LDL = test: Step density gradient of BPD added to isolated lipoprotein fraction; assay type: in vitro ADME, human; conditions: added to lipoprotein fraction after separation of albumin, % of total added
Method: (§1) (b) Determining BPD Plasma Distribution. Experiments were performed to determine the association of BPDs with plasma protein and lipoprotein fractions. When density ultracentrifugation was used for the analysis, 2 ml samples of human plasma were incubated for 18 hours at 4° C. in the presence of 100 μg of ^3 H-BPD-MA. The BPD-plasma solution was then adjusted to a density of 1.21 g/ml by the addition of solid KBr. A step gradient was prepared using stock KBr density solutions at 1.006, 1.019, and 1.063 g/ml, layered manually into the bottom of centrifuge tubes using a glass syringe and a narrow bore needle. The BPD-plasma solution was then layered into the bottom of the tube. Separation of the plasma proteins was accomplished by centrifugation in a Beckman SW 41 rotor for 24 hours at 40,000 rpm and 15° C. 0.5 ml fractions were collected, and the protein content of each fraction was monitored by measuring absorbance at 280 nm. 100 μl of each fraction was mixed with 5 ml Aquasol (NEN) and counted in a liquid scintillation counter.
(§2) To improve the HDL-albumin resolution, albumin was removed by ultracentrifugation. Plasma was mixed with ^14 C-BPD-MA and incubated for 18 hours at 4° C. The density of the mixture was then adjusted to 1.21 g/ml by the addition of solid KBr, followed by centrifugation at 40,000 rpm for 48 hours. […] The lipoprotein and lipoprotein-depleted fractions were counted for BPD-MA content. 82% of total ^14 C-BPD-MA added was recovered in the plasma lipoprotein fraction and 5% in the lipoprotein deficient fraction.
(§3) When albumin and other serum proteins were separated from the lipoprotein fraction before the addition of ^14 C-BPD-MA, a shift in binding was observed. After step density gradient separation, the majority of BPD-MA was still recovered with HDL (38% of total ^14 C-BPD-MA added); however in this case, the association with LDL and VLDL fractions appeared to be equivalent (17% with LDL and 18% with VLDL) (FIG. 5). […] Polyacrylamide gel electrophoresis of the HDL fractions from these density gradients confirmed that very little albumin was present. […]

HDL = test: as above; assay type: in vitro ADME, human; conditions: added to lipoprotein fraction after separation of albumin, % of total added
Method: as §1, §2, §3

VLDL = test: as above; assay type: in vitro ADME, human; conditions: added to lipoprotein fraction after separation of albumin, % of total added
Method: as §1, §2, §3

[1] = Absorption spectrum / absorption maximum; assay type: physicochemical; conditions: FIG. 3
[2] = background; cited from earlier work
[3] = test system: high density lipoproteins (HDLs); conditions: Barel et al.; cited from earlier work

| associated with LDL (LDL) [%] | recovered with HDL (HDL) [%] | associated with VLDL (VLDL) [%] | major absorption peak [1] | Structure (SMILES) | additional absorbance [2] | maximum absorbance [2] | affinity for high density lipoproteins [3] |
| --- | --- | --- | --- | --- | --- | --- | --- |
| 13 | 54 | 20 | about 685 nm | C=Cc1c(C)c2cc3nc(cc4[nH]c(cc5nc(cc1[nH]2)C(C)=C5CCC(=O)O)c(CCC(=O)O)c4C)C1(C)C3=CC=C(C(=O)OC)C1C(=O)OC (stereo not shown) [BPD-DA] | – | – | – |
| – | – | – | – | CC1=C(CCC(=O)O)c2cc3[nH]c(cc4nc(cc5[nH]c(cc1n2)c(C)c5C(C)O)C(C)=C4C(C)O)c(C)c3CCC(=O)O (stereo not shown) [hematoporphyrin] | around 630 nm | around 400 nm | higher affinity for high density lipoproteins (HDLs) |
